{"source": "patent US20240423981A1", "about": "“TREATMENT OF HCM WITH PYRIMIDINEDIONE COMPOUNDS” (MyoKardia, Inc., priority 2017, published 2024)", "tested_on": "obstructive HCM (oHCM) patients", "assay": "Parts A and B of the phase 2 trial (PIONEER), pooled findings", "type": "in vivo, human", "description": "This is a phase 2 open-label pilot study to evaluate the efficacy, PK, PD, safety, and tolerability of Compound 1 in subjects with symptomatic HCM and LVOT obstruction. Approximately 10 adult subjects with symptomatic HCM, a resting LVOT gradient ≥30 mm Hg, and post-exercise peak LVOT gradient ≥50 mm Hg will be enrolled. The study will have a 12-week treatment phase and a 4-week washout phase (FIG. 3).\nThis trial was similar to the trial described in Example 3, but will have several important differences. For example, subjects in the Phase 2-B trial will not be required to discontinue their β-blocker therapy, and the dose of Compound 1 will be reduced to 2 to 5 mg.\nCompound 1 concentrations were measured in human plasma using high pressure liquid chromatography (HPLC) coupled with tandem mass spectrometry (MS/MS). This method was used for Compound 1 bioanalysis in all clinical trials to date, and all clinical data has been collected using plasma. A brief description of the method follows.\nLiquid-liquid extraction and HPLC/MS/MS was used to determine the concentration of Compound 1 in human plasma. An aliquot of the extract was injected onto an HPLC instrument that is coupled with a triple quadrupole mass spectrometer (Sciex API5500). A Lux 3u Cellulose-4 HPLC column (150×2.0 mm) from […], was used to separate Compound 1, from interfering compounds that may be present in the sample extract. The internal standard was a multi-deuterated analog of Compound 1 to ensure that the internal standard used in the assay had similar chemical properties to the analyte but a different mass for selective detection. The peak area of the product ion of Compound 1 was measured against the peak area of the product ion of the internal standard for determination of concentration.", "data": [{"smiles": "CC(C)n1c(=O)cc(N[C@@H](C)c2ccccc2)[nH]c1=O", "note": "[Compound 1, (S)-3-Isopropyl-6-((1-phenylethyl)amino) pyrimidine-2, 4(1H,3H)-dione]", "values": [{"measurement": "effects accompanying the gradient reduction", "setting": "Parts A and B", "result": "improvement in symptoms, pVO2 during exercise, a decrease in NT pro-BNP and improvement in echocardiographic measures of diastolic function"}, {"measurement": "diastolic function", "setting": "Parts A and B, Tables 9 and 10", "result": "diastolic improvement"}, {"measurement": "tolerability of the therapeutic concentration range", "setting": "associated with limited decrease in LVEF", "result": "well tolerate"}, {"measurement": "compliance of the left ventricle", "setting": "increase in LVEDV with reduction in LV filling pressure (E/e′), emerging data, Cohorts A and B", "result": "improving compliance of the left ventricle"}, {"measurement": "LVEF maintained with clinical improvement in oHCM (symptom improvement and peak VO2)", "setting": "plasma concentrations of 350 to 700 ng/mL", "result": "≥ 55", "unit": "%"}, {"measurement": "LVOT gradient level reached", "setting": "plasma concentrations of 350 to 700 ng/mL, generally", "result": "< 30", "unit": "mm Hg"}]}]}
